Test results published in publication PMC11677527, “Predicting Pharmacokinetics of Active Constituents in Spatholobi caulis by Using Physiologically Based Pharmacokinetic Models” (Pharmaceuticals, 2024).
Where two headings read alike, the source gives them in different places.

Columns and labels:
[1] = design: method as in PMID 34303214; details: rats, p.o. SPC 30 g crude drug/kg; doses of 1-4: 0.062, 0.11, 0.71, 1.31 mg/kg; cited from earlier work
[2] = Observed pharmacokinetics in rats after oral SPC (previous study); assay type: in vivo, rat; details: p.o. SPC
[3] = system: Caco-2 cell monolayer; design: method as in PMID 36680806, PMID 26501241; details: Caco-2 cell monolayer model; cited from earlier work
[4] = Verification pharmacokinetic experiment in rats, SPC 60 g crude drug/kg by gavage, UFLC-MS/MS, DAS 2.0; assay type: in vivo, rat
Method: To validate the accuracy of PBPK models in predicting the pharmacokinetics of SPC constituents at different oral doses, the pharmacokinetic behavior of these four constituents from SPC in rats were analyzed by UFLC-MS/MS. The parameters were calculated using Drug and Statistics Software version 2.0, and then these validated values (Val.) were used to check the accuracy of the Calc. values and evaluated by FE.
The pharmacokinetic fitting results of rats given 60 g crude drug/kg body weight of SPC by gavage were verified by experiments. The verification experiment was conducted according to our previous pharmacokinetic study. In brief, 1.5 mL suspension of SPC was given to rats by oral administration; 300 μL blood samples from orbital venous at 0.083, 0.25, 0.5, 0.75, 1.0, 1.5, 2, 3, 4, 6, 8, and 12 h were collected and pretreated with heparin sodium. After centrifugation, the plasma samples were obtained and further processed for subsequent detection by UFLC-MS/MS; the detailed analysis method is shown in Supplementary Data (Table S1 and Figure S1). The concentration-time curve of each compound was gained, and the pharmacokinetic parameters were calculated using DAS 2.0 software (DAS 2.0, Mathematical Pharmacology Professional Committee of China, Shanghai, China). The results of these four constituents were compared with the PBPK parameters predicted in rats at an oral dose of 60 g crude drug/kg body weight of SPC.
1. The instrument and analytical conditions of UFLC-MS/MS method
4 constituents (1. 3′-methoxydadizein; 2. 8-O-methylretusin; 3. Daidzin; and 4. […]
The internal standard (IS) carbamazepine with a purity of more than 99 % was purchased from Beijing JK-chemical technology Co. Ltd., (Beijing China). Heparin sodium was gained from Tianjin biochemical pharmaceutical Co. Ltd, (Tianjin, China).
Ammonium acetate of HPLC grade, methanol and acetonitrile of LC-MS grade were purchased from Sigma (LOT# BCBK6717V, sigma-aldrich, Co., MO, USA) and Fisher (Fisher Corp., Fair lawn, NJ, USA) respectively. The experimental ultrapure water was prepared by Millipore Milli-Q ultrapure water preparation apparatus (Millipore Sigma, […]
The detailed information of Shimadzu UFLC-MS/MS 8050 liquid mass system equipped with Nexera X2UFLC liquid chromatography system and 8050 triple quadrupole mass spectrometers with an electrospray ionization source were listed in our previous study. The supporting LabSolution workstation was used for data […]
The separation without superposition of analytes in plasma sample was achieved on a Kinetex® C18 chromatographic column (100mm×2.1mm i.d.; 2.6 μm, 100 Å; Phenomenex, Inc., Torrance, CA, USA) assembled with a Phenomenex p/n AJ0-9000 C18 protection column. The mobile phase was consisted of 0.5 mM ammonium acetate in water (A) and ACN (B). The gradient elution program was selected ultimately as […]
95 % B (18.7–22 min). Column and automatic sampler temperature were set as 30 °C and 4 °C respectively. The flow rate of mobile phase was 0.35 mL/min while sample injection volume was 4 μL.
Multiple reaction monitoring (MRM) of positive or negative modes were used as scanning modes for the analytes and IS. Other essential parameters were successively optimized as: Nebulizing gas flow, 3 L/min; Heating gas flow, 10 L/min; Drying gas flow, 10 L/min; Interface temperature, 300 °C; DL temperature, 250 °C; Interface and detector voltage were each set as 3.0 kV and 1.8 kV. The detection parameters such as retention time (RT), dwell time (DT), quadrupole 1 pre-rod bias (Q1), collision energy […]
Table S1 The retention time and ion equivalent parameters of 4 constituents in rat […]
Constituents Retention Precursor Precursor Product time Pre energy Pre time (min) ion species ion ion (msec) Bias (V) Bias

[5] = compartment model parameters, DAS 2.0, rats p.o. SPC 60 g crude drug/kg, Mean, 5 rats
[6] = statistical moment parameters, DAS 2.0, rats p.o. SPC 60 g crude drug/kg, Mean, 5 rats
[7] = statistical moment parameters, DAS 2.0, rats p.o. SPC 60 g crude drug/kg, Mean, 5 rats, in µg·h²/mL

time of slight secondary absorption peak [2]: 6 h
K10 [4, 5]: 0.474 h⁻¹
K12 [4, 5]: 0.207 h⁻¹
K21 [4, 5]: 0.135 h⁻¹
Ka [4, 5]: 4.239 h⁻¹
Tlag [4, 5]: 0 h
V1/F [4, 5]: 12.821 L/kg
t1/2Ka [4, 5]: 11.1 min
t1/2α [4, 5]: 1.009 h
concentration at 0.083 h ([4]; rat, plasma, oral, time 0.083 h, rats p.o. SPC 60 g crude drug/kg, doses of 1-4: 0.124, 0.22, 1.4, 2.62 mg/kg, 5 rats): 2.98 ng/mL
concentration at 0.25 h ([4]; rat, plasma, oral, time 0.25 h, rats p.o. SPC 60 g crude drug/kg, doses of 1-4: 0.124, 0.22, 1.4, 2.62 mg/kg, 5 rats): 5.52 ng/mL
concentration at 0.5 h ([4]; rat, plasma, oral, time 0.5 h, rats p.o. SPC 60 g crude drug/kg, doses of 1-4: 0.124, 0.22, 1.4, 2.62 mg/kg, 5 rats): 7.09 ng/mL
concentration at 0.75 h ([4]; rat, plasma, oral, time 0.75 h, rats p.o. SPC 60 g crude drug/kg, doses of 1-4: 0.124, 0.22, 1.4, 2.62 mg/kg, 5 rats): 6.16 ng/mL
concentration at 1 h ([4]; rat, plasma, oral, time 1 h, rats p.o. SPC 60 g crude drug/kg, doses of 1-4: 0.124, 0.22, 1.4, 2.62 mg/kg, 5 rats): 5.77 ng/mL
concentration at 1.5 h ([4]; rat, plasma, oral, time 1.5 h, rats p.o. SPC 60 g crude drug/kg, doses of 1-4: 0.124, 0.22, 1.4, 2.62 mg/kg, 5 rats): 5.11 ng/mL
concentration at 2 h ([4]; rat, plasma, oral, time 2 h, rats p.o. SPC 60 g crude drug/kg, doses of 1-4: 0.124, 0.22, 1.4, 2.62 mg/kg, 5 rats): 2.89 ng/mL
concentration at 3 h ([4]; rat, plasma, oral, time 3 h, rats p.o. SPC 60 g crude drug/kg, doses of 1-4: 0.124, 0.22, 1.4, 2.62 mg/kg, 5 rats): 1.75 ng/mL
concentration at 4 h ([4]; rat, plasma, oral, time 4 h, rats p.o. SPC 60 g crude drug/kg, doses of 1-4: 0.124, 0.22, 1.4, 2.62 mg/kg, 5 rats): 1.46 ng/mL
concentration at 6 h ([4]; rat, plasma, oral, time 6 h, rats p.o. SPC 60 g crude drug/kg, doses of 1-4: 0.124, 0.22, 1.4, 2.62 mg/kg, 5 rats): 0.553 ng/mL
concentration at 8 h ([4]; rat, plasma, oral, time 8 h, rats p.o. SPC 60 g crude drug/kg, doses of 1-4: 0.124, 0.22, 1.4, 2.62 mg/kg, 5 rats): 0.582 ng/mL
concentration at 12 h ([4]; rat, plasma, oral, time 12 h, rats p.o. SPC 60 g crude drug/kg, doses of 1-4: 0.124, 0.22, 1.4, 2.62 mg/kg, 5 rats): 0.197 ng/mL
AUC(0-t) ([4]; rat, plasma, po, 0.124 mg/kg, compartment model parameters, DAS 2.0, rats p.o. SPC 60 g crude drug/kg, Mean, 5 rats, read-out: AUC(0-t)): 19.1 ng·h/mL
AUC(0-inf) ([4]; rat, plasma, po, 0.124 mg/kg, compartment model parameters, DAS 2.0, rats p.o. SPC 60 g crude drug/kg, Mean, 5 rats, read-out: AUC(0-∞)): 20.5 ng·h/mL
CL/F ([4]; rat, plasma, po, 0.124 mg/kg, compartment model parameters, DAS 2.0, rats p.o. SPC 60 g crude drug/kg, Mean, 5 rats, read-out: CL/F (converted)): 101 mL/min/kg
half-life ([4]; rat, plasma, po, 0.124 mg/kg, compartment model parameters, DAS 2.0, rats p.o. SPC 60 g crude drug/kg, Mean, 5 rats, read-out: t1/2β (converted)): 865 min
AUC(0-t) ([4]; rat, plasma, po, 0.124 mg/kg, statistical moment parameters, DAS 2.0, rats p.o. SPC 60 g crude drug/kg, Mean, 5 rats, read-out: AUC(0-t)): 19.1 ng·h/mL
AUC(0-inf) ([4]; rat, plasma, po, 0.124 mg/kg, statistical moment parameters, DAS 2.0, rats p.o. SPC 60 g crude drug/kg, Mean, 5 rats, read-out: AUC(0-∞)): 20 ng·h/mL
CL/F ([4]; rat, plasma, po, 0.124 mg/kg, statistical moment parameters, DAS 2.0, rats p.o. SPC 60 g crude drug/kg, Mean, 5 rats, read-out: CLz/F (converted)): 103 mL/min/kg
Cmax ([4]; rat, plasma, po, 0.124 mg/kg, statistical moment parameters, DAS 2.0, rats p.o. SPC 60 g crude drug/kg, Mean, 5 rats, read-out: Cmax): 7.18 ng/mL
MRT last ([4]; rat, plasma, po, 0.124 mg/kg, statistical moment parameters, DAS 2.0, rats p.o. SPC 60 g crude drug/kg, Mean, 5 rats, read-out: MRT(0-t)): 2.77 h
MRT inf ([4]; rat, plasma, po, 0.124 mg/kg, statistical moment parameters, DAS 2.0, rats p.o. SPC 60 g crude drug/kg, Mean, 5 rats, read-out: MRT(0-∞)): 3.44 h
Tmax ([4]; rat, plasma, po, 0.124 mg/kg, statistical moment parameters, DAS 2.0, rats p.o. SPC 60 g crude drug/kg, Mean, 5 rats, read-out: Tmax): 33 min
Vd/F ([4]; rat, plasma, po, 0.124 mg/kg, statistical moment parameters, DAS 2.0, rats p.o. SPC 60 g crude drug/kg, Mean, 5 rats, read-out: Vz/F): 25.9 L/kg
half-life ([4]; rat, plasma, po, 0.124 mg/kg, statistical moment parameters, DAS 2.0, rats p.o. SPC 60 g crude drug/kg, Mean, 5 rats, read-out: t1/2z (converted)): 174 min
AUC(0-t) ([4]; rat, plasma, po, 2.62 mg/kg, rats, p.o. SPC 60 g crude drug/kg, doses of 1-4: 0.124, 0.22, 1.42, 2.62 mg/kg, n = 5, read-out: AUC0→t Val.): 19.1 ng·h/mL
AUC(0-inf) ([4]; rat, plasma, po, 2.62 mg/kg, rats, p.o. SPC 60 g crude drug/kg, doses of 1-4: 0.124, 0.22, 1.42, 2.62 mg/kg, n = 5, read-out: AUC0→∞ Val.): 20 ng·h/mL
Cmax ([4]; rat, plasma, po, 2.62 mg/kg, rats, p.o. SPC 60 g crude drug/kg, doses of 1-4: 0.124, 0.22, 1.42, 2.62 mg/kg, n = 5, read-out: Cmax Val.): 7.2 ng/mL
Tmax ([4]; rat, plasma, po, rats, p.o. SPC 60 g crude drug/kg, doses of 1-4: 0.124, 0.22, 1.42, 2.62 mg/kg, n = 5, read-out: Tmax Val.): 33 min
Cz [4, 6]: 0.202 µg/L
VRT(0-t) [4, 6]: 7.148 h^2
VRT(0-∞) [4, 6]: 16.239 h^2
elimination rate constant [4, 6]: 0.247 h⁻¹
AUMC(0-t) [4, 7]: 52.953
AUMC(0-∞) [4, 7]: 68.893
Compound: COc1cc(-c2coc3cc(O)ccc3c2=O)ccc1O [Constituent 1, 3′-methoxydadizein]
AUC0→t Obs. [1]: 8.4 ng·h/mL
AUC0→∞ Obs. [1]: 9 ng·h/mL
Cmax Obs. [1]: 3.9 ng/mL
Tmax Obs. [1]: 25.2 min
Papp [3]: 2.2e-06 cm/s
